Source: PubChem BioAssay AID179 (DTP/NCI, 2004)
Activity calls are given as the source filed them.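 The calls were made as follows: active = compounds giving half or more protection of infected cells from virus-caused growth loss, again on retest; inactive = the rest.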

System: CEM cells HIV-1 protection, formazan growth assay
Test: NCI AIDS Antiviral Assay
Settings: for IC50: measured here: growth of uninfected CEM cells
Procedure, shortened: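 Category rules: moderately active means at least 50% protection on retest, and confirmed active means 100% protection reproducibly. The underlying data came from a formazan growth assay in HIV-1-infected CEM cells.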

SMILES | EC50 [µM] | IC50 [µM] | outcome
CC(=O)OC(Cn1cncn1)(Cn1cncn1)c1ccc(Cl)cc1Cl | > 200 | > 200 | –
C[C@H](N)C(O)C/C=C\C/C=C\C/C=C\C/C=C\C/C=C\C/C=C\CCCCCCC(O)[C@H](C)N (stereo not given in full) | – | – | inactive
O=C1/C(=C/c2ccc(O)cc2)Oc2cc(O)ccc21 | > 204 | 66.1 | –
CCN(CC)C(=S)N/N=C(/C)c1cccc(/C(C)=N\NC(=S)N(CC)CC)n1 | > 200 | 6.31 | –
COc1cc(N=Nc2ccccc2)ccc1NCS(=O)(=O)O | > 200 | 174 | –
C[CH2][Sn]([CH2]C)([O]C(=O)c1cc(OC)c(OC)c(OC)c1)[O][Sn]([CH2]C)([CH2]C)[O]C(=O)c1cc(OC)c(OC)c(OC)c1 | > 6.61 | > 6.61 | –
Cc1c([O-])c([O-])c(-c2c([O-])c([O-])c(C)c3c2OCO3)c2c1OCO2.[C-]#[O+].[C-]#[O+].[C-]#[O+].[C-]#[O+].[C-]#[O+].[C-]#[O+].[C-]#[O+].[C-]#[O+].[Re].[Re] | > 174 | 93.3 | –
O=C1NN(C2=NNC3(C(=O)N2)c2ccccc2-c2ccccc23)C(c2ccccc2)=N/C1=C/c1ccc(O)cc1 | > 100 | 66.1 | –
COC(O)C(=O)c1c2c(cc3c1CCC3)CCCC2 (stereo not given) | > 200 | 6.17 | –
CCn1nc(C)c2c1C(=O)NC(C)C(=O)N2 (stereo not given) | > 200 | > 200 | –
NC(N)NCCCc1cn2c(n1)C1CCCN1C(=O)C2Cc1ccccc1 (stereo not given) | > 676 | > 676 | –
CC1=C(CC2C(=O)N(c3ccccc3)S(=O)(=O)NC2C)C(=O)N(c2ccccc2)S(=O)(=O)N1C (stereo not given) | > 490 | 16.6 | –
CCc1c(Cc2ccccc2)n(COCC[Se]c2ccccc2)c(=O)[nH]c1=O | 4.27 | 28.8 | –
CC(=O)Oc1ccc(C2SCc3nc4ccccc4n32)cc1 (stereo not given) | > 200 | 18.2 | –
CCCCNc1cc2oc(=O)cc(C)c2cc1N | > 155 | 44.7 | –
NCCCCCCCCCCC(=O)O | 151 | > 200 | –
CN1CC2CN(Cc3ccccc3)CCN2c2cccnc21 (stereo not given) | > 200 | 81.3 | –
O=C(Nc1ccc(F)cc1)Nc1ccc(Nc2ccccc2)cc1 | > 200 | > 200 | –
O=c1ccc2cc3ccoc3c(OCCOCCOCCOCCOc3c4occc4cc4ccc(=O)oc34)c2o1 | > 79.4 | 10.7 | –
COc1ccc2c(c1OC)C(=O)c1cc(C(C)O)oc1C2=O (stereo not given) | – | – | inactive

SMILES | EC50 [µM] | IC50 [µM] | outcome
CCC(=O)N(O)C(C)(C)C | > 1740 | > 1740 | –
CCCC(C)N(CC(=O)Nc1ccc(S(N)(=O)=O)cc1)C(C)=O (stereo not given) | > 200 | > 200 | –
N#CC(C#N)C(c1ccccc1)c1ccccc1 | – | – | inactive
N=Nc1c2ccccc2c2nc3c(N)[nH]nc(N)c3nc12 | > 45.7 | 28.8 | –
Nc1nccc(NCC2(CO)CC(OCc3ccccc3)C2)n1 (stereo not given) | > 200 | > 200 | –
Cc1c(C(=O)C/C(=N/NC(=O)CC#N)C(N)=O)[n+](=O)c2ccccc2n1[O-] | > 26.9 | > 26.9 | –
Cn1c(-c2cccs2)cc(-c2cccs2)c1-c1cccs1 | > 200 | 33.9 | –
O=CN1CCN(c2ccc3ccc(=O)[nH]c3n2)CC1 | > 200 | > 200 | –
CCC(C)C1NC(=O)C(N(C)C)Cc2cc(ccc2OC)/C=C/NC(=O)C(Cc2ccccc2)NC1=O (stereo not given) | > 35.5 | > 35.5 | –
Cc1cnc2c(c1)CCCC2C(N)=S (stereo not given) | – | – | inactive
CCOC(=O)CC1CN(Cc2ccccc2)CCC1=O (stereo not given) | – | – | inactive
COc1ccc(C2S/C(=C\c3ccc(OC)cc3OC)C(=O)N2NC(=O)Cc2ccccc2)cc1 (stereo not given) | > 52.5 | > 52.5 | –
CC1Cc2c(nc3n(c2=O)CCCCC3)O1 (stereo not given) | > 407 | > 407 | –
COc1cc(-c2cc(=O)c3c(C)cc(O)cc3o2)cc(OC)c1OC | 112 | > 200 | –
O=C(CCCN1CCC2(CC1)CC(=O)N(N1CCOCC1)C2=O)c1ccc(F)cc1 | > 200 | > 200 | –
O=C(Cc1ccccc1)Nn1c(-c2ccccc2)nc2ccccc2c1=O | 123 | > 200 | –
CCOC(=O)c1c(NC(=S)Nc2ccc(C)cc2)sc2c1CCN(C)C2 | > 200 | > 200 | –
CCOC(=O)c1ccc(CSc2ccc(Cl)cc2)cc1 | > 4.68 | > 4.68 | –
N#Cc1ccnc(C(=O)N2CCCC2C(=O)O)c1 (stereo not given) | > 200 | > 200 | –
COc1ccc(C(=O)C(c2ccc(OC)cc2)C2(O)C(=O)Nc3ccc([N+](=O)[O-])cc32)cc1 (stereo not given) | > 79.4 | > 79.4 | –
